According to patent US20230201183A1, “METHODS TO […] ENHANCE MULTIPLE […] PROTEOSTASIS […] TO TREAT NEURODEGENERATION AND STORAGE DISEASES” (Northwestern University, priority 2021, published 2023):

Legend:
lysosomal GCase = test: Live-cell lysosomal GCase activity assay; assay type: cell-based, human; conditions: live A53T patient neurons; 10 mM GlcNAc
Procedure: Live-cell lysosomal GCase activity assay. The procedure and analysis method for the activity assay has been previously described in detail (Cuddy and Mazzulli, 2021). Briefly, one day prior to the assay, cells were treated with 1 mg/ml cascade dextran blue (Life Technologies) in a 96-well plate for 24 hours. This was followed by treatment of cells with DMSO or 200 nM bafilomycin A1 for 1 hour at 37° C. The cells were subjected to 1 hour pulse chase with an artificial fluorescent GCase substrate, 100 ug/ml 5-(pentafluoro-benzoylamino) fluorescein di-ß-D-glucopyranoside (PFB-FDGluc; Life Technologies), at 37° C. The fluorescence signal was measured every 30 minutes for the span of 3-4 hours on a plate reader (Ex=485 nm, Em=530 nm, for the GCase substrates; Ex=400 nm, Em=430 nm for cascade dextran blue). For the analysis, the GCase fluorescence signal was normalized to either lysosomal mass by using cascade dextran blue signal or total cell volume by quantifying CellTag 700 staining signal.
The transfection was performed with X-tremeGENE transfection reagent (Roche #6366236001) as described previously (Cuddy et al., 2019). Lentiviral particles were collected from the media and concentrated using Lenti-X concentrator (Clontech, #631232). […] The viral particle number and the number of plated cells was used to calculate the multiplicity of infection (MOI). […]

A53T iPSn [1] = test: GCase solubility and maturation (sequential extraction, Endo H, western blot); assay type: cell-based, human; conditions: 10 mM GlcNAc for 7 days
Procedure: (§1) Protein extraction was done as described in detail (Stojkovska and Mazzulli, 2021). […] Supernatant was discarded and the cell pellets were subjected to homogenization in 1% Triton X-100 buffer (1% Triton X-100, 20 mM HEPES pH 7.4, 150 mM NaCl, 10% glycerol, 1 mM EDTA, 1.5 mM MgCl2, 1 mM phenylmethanesulfonyl fluoride (PMSF), 50 mM NaF, 2 mM Na orthovanadate, and a protease inhibitor cocktail (Roche diagnostics, https://www.roche.com, #11-836-170-001)) by homogenization. […] Protein band intensities was quantified by the ImageStudio software ver 3.1.
Analysis of post-ER GCase: This assay was performed as described in detail (Cuddy and Mazzulli, 2021). Briefly, 40 ug of lysate were subjected to Endoglycosidase H (Endo H) digestion as per the manufacturer's protocol (New England Biolabs, https://www.neb.com) at 37° C. for 2 h. Duplicate samples without enzyme were incubated under the same conditions serving as control (undigested samples). […] Endo H resistant bands migrating 62-64 kDa were measured as post-ER forms and maturation was calculated by quantifying the post-ER/ER ratios. Quantification was performed on Image Studio software (Licor). […] Standard error of the mean values were graphed, analyzed by student's t-test, and p values <0.05 were considered significant. […]

A53T iPSn [2] = test: N-glycosylated proteins by Con A-biotin western blot; assay type: cell-based, human
Procedure: as §1
(§2) . The transfection was performed with X-tremeGENE transfection reagent (Roche #6366236001) as described previously (Cuddy et al., 2019). Lentiviral particles were collected from the media and concentrated using Lenti-X concentrator (Clontech, #631232). […] The viral particle number and the number of plated cells was used to calculate the multiplicity of infection (MOI). For GFPT2 Overexpression the A53T neurons were infected at MOI-3 and harvested 2 weeks post-infection. A53T neurons were infected with XBP1^s lentivirus at MOI-1 and harvested 16 days post-infection. […]
(§3) Neurons were treated with or without 5 ug/ml tunicamycin (EMD Millipore/Calbiochem) for 24 hrs. Cells were extracted in 1% Triton X-100 buffer and analyzed by western blot for Hex B, Con-A, or GFPT2 as described in “Sequential protein extraction and western blotting analysis”. […]

A53T iPSn [3] = test: α-syn sequential extraction/western blot; assay type: cell-based, human; conditions: 10 mM GlcNAc for 7 days
Procedure: as §1
The transfection was performed with X-tremeGENE transfection reagent (Roche #6366236001) as described previously (Cuddy et al., 2019). Lentiviral particles were collected from the media and concentrated using Lenti-X concentrator (Clontech, #631232). […] The viral particle number and the number of plated cells was used to calculate the multiplicity of infection (MOI). For GFPT2 Overexpression the A53T neurons were infected at MOI-3 and harvested 2 weeks post-infection. A53T neurons were infected with XBP1^s lentivirus at MOI-1 and harvested 16 days post-infection. Neurons infected with lentivirus expressing GFP was used as control.
iPSC neurons were supplemented with or without GlcNAc (A3286-sigma) at 10 mM for 7 days in PBS.

A53T iPSn [4] = test: Neurofilament toxicity assay (neuron viability); assay type: cell-based, human
Procedure: iPSC-neurons 96 well format were fixed in 4% paraformaldehyde in PBS for 20 minutes, followed by incubation in 0.3% Triton X-100 (PBS) for 20 min. The cells were then blocked with Odyssey blocking buffer (Li-Cor) for 1 h. Anti-neurofilament antibody (1:1000, mouse IgG 2H3, Developmental Studies Hybridoma Bank, University of Iowa, Iowa City, Iowa) was incubated overnight in blocking buffer at 4° C., followed by washing in PBS with 0.1% Tween for 20 min. IRdye 800-conjugated anti-mouse IgG antibodies (1:1000 dilution, Li-Cor) was incubated in blocking buffer for 1 hour and CellTag™ 700 (Li-Cor) was also added for normalization. The Cells were washed four times in PBS-0.1% Tween and scanned on an Odyssey infrared imaging system (Li-Cor). Neurofilament intensity was determined by Image Studio software (version 2.1 Li-Cor) and normalized to […].
The transfection was performed with X-tremeGENE transfection reagent (Roche #6366236001) as described previously (Cuddy et al., 2019). Lentiviral particles were collected from the media and concentrated using Lenti-X concentrator (Clontech, #631232). […] The viral particle number and the number of plated cells was used to calculate the multiplicity of infection (MOI). For GFPT2 Overexpression the A53T neurons were infected at MOI-3 and harvested 2 weeks post-infection. […]

A53T iPSn [5] = test: Hex B glycosylation and maturation by western blot; assay type: cell-based, human
Procedure: as §1, §2, §3

wt iPSn = test: Quantitative RT-PCR mRNA analysis; assay type: cell-based, human; conditions: tunicamycin 5 ug/ml, 24 h
Procedure: (§4) Measurement of RNA. Total RNA was extracted and isolated using the PureLink RNA Mini Kit (Thermofisher Scientific). cDNA was synthesized using the RevertAid First Strand cDNA Synthesis Kit (Thermofisher Scientific). Real-time PCR was performed on an Applied Biosystems 7500 Fast system using pre-designed Taqman-primer probe sets: DPAGT1 (Hs00609752_m1), GFPT2 (Hs01049570_m1), XBP1U (Hs02856596_m1), XBP1s (Hs03929085_g1), GRP78 (Hs99999174_m1), HSP90B1/GRP94 (Hs00427665_g1), GBA1 (Hs00164683_m1), HexB (Hs01077594_m1) and ACTB (Hs01060665_g1). The quantifications represent the fold change of target mRNA expression normalized to beta-actin (ACTB) levels by delta-Ct method. The values are mean and s.e.m of biological replicates (n=3-6) with two technical replicates for each.
(§5) Neurons were treated with or without 5 ug/ml tunicamycin (EMD Millipore/Calbiochem) for 24 hrs. Cells were extracted in 1% Triton X-100 buffer and analyzed by western blot for Hex B, Con-A, or GFPT2 as described in “Sequential protein extraction and western blotting analysis”. For mRNA measurement, total RNA was extracted and isolated as described in “Measurement of mRNA.” cDNA was synthesized and subjected to real-time PCR using Taqman-primer probe sets for GFPT2, XBP1U, and GRP78.

control iPSn = test: N-glycosylated proteins by Con A-biotin western blot; assay type: cell-based, human; conditions: tunicamycin 5 ug/ml, 24 hours
Procedure: as §1, §5

isogenic control iPSn = test: Hex B glycosylation by western blot; assay type: cell-based, human; conditions: control cells; tunicamycin
Procedure: as §1, §5

SNCA-3x iPSn = test: GFPT2 western blot; assay type: cell-based, human; conditions: tunicamycin
Procedure: as §1, §5

isogenic controls = test: GFPT2 western blot; assay type: cell-based, human; conditions: isogenic controls of SNCA-3x; tunicamycin
Procedure: as §1, §5

A53T iPSn [6] = test: Quantitative RT-PCR mRNA analysis; assay type: cell-based, human
Procedure: as §4
. The transfection was performed with X-tremeGENE transfection reagent (Roche #6366236001) as described previously (Cuddy et al., 2019). Lentiviral particles were collected from the media and concentrated using Lenti-X concentrator (Clontech, #631232). […]
as §3

[7] = test system: wild-type or isogenic control neurons; test: ER stress induction and insoluble GCase in control neurons; assay type: cell-based, human; conditions: 30 nM Tg for 24 hours
[8] = test system: SNCA-3X DA neurons and α-syn overexpressing cell lines; test: ER stress induction, UPR markers (mRNA/protein); assay type: cell-based, human; conditions: for XBP1-S / mRNA/protein levels of ER chaperones including GRP78, GRP94, and CANX: 30 nM Tg or 50 ng/ml BFA for 24 hours
Procedure: Total RNA was isolated from cells in a 24 or 12 well format using an RNeasy Mini Prep kit (QIAGEN). cDNA was synthesized by reverse transcriptase PCR (RT-PCR) using the RevertAid First Strand cDNA synthesis kit (Thermo Fisher Scientific). Quantitative PCR was performed on the Applied Biosystems 7500 Fast system using the cDNA and pre-designed TaqMan-primer probes for the target genes. The target mRNA expression was quantified relative to GAPDH or […] using the delta-delta-Ct method, and represented as a fold change.

[9] = test system: midbrain neurons from a GD (N370S/84GG) and a PD patient that harbors a GBA1 mutation (N370S/wt); test: GCase maturation and α-syn western blot in GBA1 mutant patient neurons; conditions: GD (N370S/84GG) and GBA-PD (N370S/wt) neurons; two weeks

How did the “increase of GCase activity levels” value (lysosomal GCase) turn out when CC(=O)NC1C(O)[C@H](O)C(CO)O[C@H]1O (stereo partly drawn) [GlcNAc, β-D-(acetylamino)-2-deoxy-glucopyranose] was run?
The value was ~2 fold.

What about the “increase in the levels of mature, soluble GCase” value (A53T iPSn [1]) of the same molecule?
The value was 2 fold.

What about the “N-glycosylated proteins (Con A)” value (A53T iPSn [2]) of the same molecule?
Its value is “completely restored the levels of N-glycosylation to control levels”.

And the “reduction in pathological α-syn” value (A53T iPSn [3])?
The value was ~75%.

What about the “neuron viability (neurofilament / neurite content)” value (A53T iPSn [4]) of the same molecule?
The value was “improved neuron viability”.

And the “glycosylated and mature forms of Hex B” value (A53T iPSn [5]; 10 mM GlcNAc for 7 days)?
The value was “enhanced the glycosylated and mature forms of Hex B”.

Which results are given for tunicamycin?
upregulation of GFPT2 mRNA (wt iPSn): ~2 fold; reduction of N-glycans (control iPSn): ~50%; Hex B glycosylation (isogenic control iPSn): blocked Hex B glycosylation; N-glycosylated proteins (Con A) (A53T iPSn [2]): no effect; GFPT2 protein (SNCA-3x iPSn): no effect; elevation of GFPT2 protein (isogenic controls): 60%; Hex B response to tunicamycin (A53T iPSn [5]; A53T iPSn compared to controls): reduced response; UPR-responsive transcripts XBP1 and GRP78 (A53T iPSn [6]; A53T iPSn versus Corr, tunicamycin): less responsive; upregulation of GFPT2 mRNA (A53T iPSn [6]; A53T iPSn, tunicamycin 5 ug/ml, 24 h): ~1.2 fold

Which results are given for C/C=C(/C)C(=O)O[C@H]1C(C)=C2[C@H]([C@@H]1OC(=O)CCCCCCC)[C@@](C)(OC(C)=O)C[C@H](OC(=O)CCC)[C@@]1(O)[C@H]2OC(=O)[C@@]1(C)O [Tg]?
GRP78 expression (ER stress) [7]: increased GRP78 expression; XBP1-S [8]: dramatic upregulation of XBP1-S; mRNA/protein levels of ER chaperones including GRP78, GRP94, and CANX [8]: significantly increased mRNA/protein levels of ER chaperones; phospho-eIF2α ([8]; isogenic controls and SNCA-3X DA neurons, 30 nM Tg): increased phospho-eIF2α to a similar degree

C#Cc1cccc(-c2cc(=O)n(C)c3ccc([C@](O)(c4ccc(Cl)cc4)c4cncn4C)cc23)c1 [FTI, 6-[(R)-(4-chlorophenyl)hydroxy(1-methyl-1H-imidazol-5-yl)methyl]-4-(3-ethynylphenyl)-1-methyl-2(1H)-Quinolinone] was tested. Which GCase maturation [9] did it give?
The GCase maturation was “minimal effects”.

What about the α-syn levels [9] of the same molecule?
The α-syn levels was “minimal effects”.

For C[C@H]1CCC/C=C/[C@@H]2C[C@H](O)C[C@H]2[C@H](O)/C=C/C(=O)O1 [BFA], which XBP1-S [8] is on record?
The XBP1-S was “dramatic upregulation of XBP1-S”.

And the “mRNA/protein levels of ER chaperones including GRP78, GRP94, and CANX” value [8]?
The value was “significantly increased mRNA/protein levels of ER chaperones”.
